# Measured values: patent publication US20200276154A1, “COMPOSITION FOR PROMOTING ADIPOCYTE DIFFERENTIATION OR ADIPONECTIN, COMPRISING TRIMETHOXY PHENYL COMPOUND” (AMOREPACIFIC CORPORATION, priority 2017, published 2020)
# Assays:
# Type in all cases: cell-based, human
# [1] = system: hSCFs; experiment: Quantitative analysis of adipocyte differentiation by Oil Red O (ORO) staining; settings: 14 days differentiation, compared with KA 400 μM, CA 60 μM, GC 30 μM
# Experimental: Human subcutaneous fat cells (hereinafter, hSCFs) and a subcutaneous preadipocyte differentiation medium were purchased from ZenBio Inc. (NC, USA). The cells were cultured in a humidified 5% CO2 incubator for 7 days.
# To induce differentiation, the hSCFs were cultured further for 14 days in a Dulbecco's modified Eagle's medium (DMEM; Lonza, MD, USA) supplemented with 10% fetal bovine serum (FBS, PAA, Pasching, Austria), 10 μg/mL insulin (Sigma-Aldrich, MO, USA), 0.5 mM 3-isobutyl-1-methylxanthine (IBMX; Sigma-Aldrich, St. Louis, Mo., USA), 1 μM dexamethasone (DEX, Sigma-Aldrich, St. Louis, Mo., USA) and 1 μM troglitazone (Sigma-Aldrich, St. Louis, Mo., USA) while replacing the medium every other day.
# The hSCFs cultured in Example 1 were differentiated for a total of 14 days by treating with a composition containing PAC-2 at various concentrations (μM) or with KA (400 μM), CA (60 μM) or GC (30 μM) as positive control groups. Then, after washing twice with cold PBS (phosphate-buffered saline), the cells were fixed in 3.7% formaldehyde (Sigma-Aldrich, St. Louis, Mo., USA) for 1 hour. The fixed hSCFs were washed with 60% propylene glycol (Sigma-Aldrich, St. Louis, Mo., USA) in PBS and were treated with Oil Red 0 (0.3% Oil Red 0 in 60% propylene glycol; Sigma-Aldrich, St. Louis, Mo., USA) for 30 minutes. The cells were washed with 85% propylene glycol thrice and then rinsed with tap water. […]
# [2] = system: adiponectin (Adipoq) mRNA in hSCFs; experiment: mRNA expression of adiponectin by real-time quantitative PCR (RT-qPCR); settings: compared with positive control groups KA 400 μM, CA 60 μM, GC 30 μM
# Experimental: Total RNA was extracted by treating the hSCFs cultured in Example 1 with a composition containing PAC-2 at various concentrations (μM) or KA (400 μM), CA (60 μM) and GC (30 μM) as positive control groups using a TRIzol reagent (Life Technologies, Carlsbad, Calif., USA) according to the manufacturer's instructions. 1 μg of total RNA was utilized to synthesize complementary DNAs (cDNAs) using the RevertAid first strand cDNA synthesis kit (Thermo Scientific, Pittsburgh, Pa., USA). About 1 μg of the cDNA sample and each TaqMan® probe (Life Technologies, Carlsbad, Calif., USA) were diluted in a reaction mixture of the Quantitect probe PCR kit (QIAGEN, Valencia, Calif., USA) and PCR was conducted using the 7500 fast real-time PCR system (Life Technologies, Carlsbad, Calif., USA). The TaqMan® probe was glyceraldehyde-3-phosphate dehydrogenase (GAPDH; Part #4352339E). All data were acquired from three independent experiments and are presented as fold changes relative to the GAPDH control group.
# [3] = system: secreted adiponectin from hSCFs; experiment: Quantitative analysis of adiponectin production by ELISA; settings: culture medium, compared with positive control groups KA 400 μM, CA 60 μM, GC 30 μM
# Experimental: The hSCFs cultured in Example 1 were treated with KA (400 μM), CA (60 μM) or GC (30 μM) as positive control groups or a composition containing PAC-2 at various concentrations. The culture medium was collected and centrifuged at 13,000 rpm for 15 minutes to remove any debris. The secreted adiponectin was measured using an adiponectin ELISA kit (Enzo Life Sciences, Farmingdale, N.Y., USA) according to the manufacturer's instructions.
structure (smiles),measurement,setting,value
"COc1cc(/C=C/C(=O)OCc2cc(=O)c(O)co2)cc(OC)c1OC [PAC-2, 3-(3,4,5-trimethoxyphenyl)-acrylic acid 5-hydroxy-4-oxo-4H-pyran-2-ylmethyl ester]",number of Oil Red O stained cells,[1]; 25 μM,remarkably increased number of stained cells
same,number of Oil Red O stained cells,[1]; 50 μM,remarkably increased number of stained cells
same,mRNA expression level of adiponectin,[2]; 25 μM,≥ 3 times
same,mRNA expression level of adiponectin,[2]; 50 μM,≥ 5 times
same,amount of the secreted adiponectin,[3]; 25 μM,≥ 3 times
same,amount of the secreted adiponectin,[3]; 50 μM,≥ 7 times
